Data as given in patent US20050272606A1, “Plant life control composition” (priority 1999, published 2005).

Tests used:
Assay in all cases: POST trolley belt sprayer test (Example 3)
Details in all cases: 600 g/ha, 14 DAT
NS (Nightshade) = format: in vivo, Solanum nigrum
Experimental: (§1) All POST crops and weeds plants were grown into separate square pots which measured 10×10 cm. The soil used was amended with Redi-Eartho Plug and Seedling Mix in a one to one ratio. Ten to twenty seeds per small seeded species were planted per pot. Five to ten seeds were planted with large seeded species. Seeds were sown 0.5 inches deep. Generally, POST plants were 7 to 21 days old (from planting) when sprayed. Grasses were in the 2-4 leaf stage and broadleaf weeds were in the 1-2 true leaf stage.
(§2) The spray volume was 50 gallons per acre (468 I/Ha). Rates of application (grams per hectare) varied depending on the concentration of chemical within each individual spray solution. Technical samples were dissolved in acetone. Formulations are suspended in water. All applications were made using a trolley belt sprayer. The test plants were placed on the belt inside the spray hood. Then the spray nozzle which is attached to the trolley, moves mechanically over the top of the plants. The spray nozzle delivers a flat fan spray pattern and is a typical nozzle used in herbicide field applications. The belt carries the plants out of the spray hood and into a drying chamber.
(§3) After spray application, the test plants were placed in a vented cabinet until dry, then placed in the greenhouse. […] The trolley sprayer settings were as follows (50 (GPA) Gallons Per Acre or (468 L/Ha): […]

CN (Corn) = format: in vivo, Zea mays
Experimental: as §1, §2, §3

BYG (Barnyardgrass) = format: in vivo, Echinochloa crus-galli
Experimental: as §1, §2, §3

SOY (Soybean) = format: in vivo, Glycine max
Experimental: as §1, §2, §3

WHT (Wheat) = format: in vivo, Triticum spp.
Experimental: as §1, §2, §3

PIG (Pigweed) = format: in vivo, Amaranthus retroflexus
Experimental: as §1, §2, §3

RI (Rice) = format: in vivo, Oryza sativa
Experimental: as §1, §2, §3

SIG (Signalgrass) = format: in vivo, Brachiaria platyphylla
Experimental: as §1, §2, §3

VEL (Velvetleaf) = format: in vivo, Abutilon theophrasti
Experimental: as §1, §2, §3

CRB (Crabgrass) = format: in vivo, Digitaria sanguinalis
Experimental: as §1, §2, §3

COT (Cotton) = format: in vivo, Gossypium hirsutum
Experimental: as §1, §2, §3

SMT (Smartweed) = format: in vivo, Polygonum lapathifolium
Experimental: as §1, §2, §3

RYE (Ryegrass) = format: in vivo, Lolium multiflorum
Experimental: as §1, §2, §3

CKL (Cocklebur) = format: in vivo, Xanthium pensylvanicum
Experimental: as §1, §2, §3

BID (Bidens) = format: in vivo, Bidens pilosa
Experimental: as §1, §2, §3

BP (Blue panicum) = format: in vivo, Panicum antidotale
Experimental: as §1, §2, §3

FOX (Foxtail) = format: in vivo, Setaria viridis
Experimental: as §1, §2, §3

NUT (Nutsedge) = format: in vivo, Cyperus esculentus
Experimental: as §1, §2, §3

TEA (Teaweed) = format: in vivo, Sida spinosa
Experimental: as §1, §2, §3

[1] = system: Broadleaf Weeds (Avg Dicot); format: in vivo
Experimental: as §1, §2, §3

[2] = system: Grassy Weeds (Avg Monocot); format: in vivo
Experimental: as §1, §2, §3

MG (Morningglory) = format: in vivo, Ipomoea hederacea
Experimental: as §1, §2, §3

SPR (Sprangletop) = format: in vivo, Leptochloa dubia
Experimental: as §1, §2, §3

In the case of C[n+]1ccc(-c2cc[n+](C)cc2)cc1 [Paraquat], the “% POST Control of Broadleaf Weeds” value (NS (Nightshade)) is reported as 100%, the “% Crop Injury” value (CN (Corn)) is reported as 85% and the “% POST Control of Grassy Weeds” value (BYG (Barnyardgrass)) is reported as 95%. The “% Crop Injury” value (SOY (Soybean)) was 100%, the “% Crop Injury” value (WHT (Wheat)) was 100% and the “% POST Control of Broadleaf Weeds” value (PIG (Pigweed)) was 100%. The “% Crop Injury” value (RI (Rice)) was 100%, the “% POST Control of Grassy Weeds” value (SIG (Signalgrass)) was 85% and the “% POST Control of Broadleaf Weeds” value (VEL (Velvetleaf)) was 100%. For the same molecule, the “% POST Control of Grassy Weeds” value (CRB (Crabgrass)) was 90%, the “% Crop Injury” value (COT (Cotton)) was 100% and the “% POST Control of Broadleaf Weeds” value (SMT (Smartweed)) was 100%. The “% POST Control of Grassy Weeds” value (RYE (Ryegrass)) was 100%, the “% POST Control of Broadleaf Weeds” value (CKL (Cocklebur)) was 100% and the “% POST Control of Broadleaf Weeds” value (BID (Bidens)) was 100%. For the same molecule, the “% POST Control of Grassy Weeds” value (BP (Blue panicum)) was 100%, the “% POST Control of Grassy Weeds” value (FOX (Foxtail)) was 90% and the “% POST Control of Grassy Weeds” value (NUT (Nutsedge)) was 85%. The “% POST Control of Broadleaf Weeds” value (TEA (Teaweed)) was 85%, the “% POST Control of Broadleaf Weeds, Avg Dicot” value [1] was 98% and the “% POST Control of Grassy Weeds, Avg Monocot” value [2] was 93%. The “% POST Control of Broadleaf Weeds” value (MG (Morningglory)) was 100% and the “% POST Control of Grassy Weeds” value (SPR (Sprangletop)) was 100%.
